From patent publication US6949528B1, “Compositions containing lysophosphatidic acids which inhibit apoptosis and uses thereof” (priority 1998, dated 2005)
Like-named read-outs stand apart in the source and are kept apart here.

Key:
[1] = system: rat neonatal cardiomyocytes; test: Cardiomyocyte death induced by serum/glucose deprivation; assay type: cell-based; conditions: for Emax: Rattus norvegicus, Cardiomyocyte, read-out: Maximum effect relative to 18:1 LPA in cardiomyocytes
Protocol: Cardiomyocytes were prepared from hearts of day-old Sprague Dawley rats by trypsinization and mechanical disaggregation (Simpson, (1985)) Circ. Res. 56:884-894. The cells were resuspended in MEM, 1×MEM vitamins (Gibco), 5% fetal bovine serum and 50 U/ml penicillin-G and pre-plated for 30 minutes to reduce contamination of non-myocytes. The non-adherent cardiac myocytes were separated and seeded in 2 ml in 35 mm dishes at a density of 3.5×10^5 viable cells per ml. The cells were allowed to adhere for 16-24 hours in a 37° C./5% CO2 humidified incubator.
For serum deprivation, the medium was replaced with fresh serum-free RPMI, whereas serum/glucose deprivation was performed using glucose-free RPMI. The induction of cell death by adriamycin or C2-ceramide was accomplished by the addition of the agent prepared in serum-free RPMI. As a model of ischemia, cultures in serum and glucose free RPMI were placed in an airtight chamber and the latter was continuously perfused with oxygen-free gas overlay of 95% N2/5% CO2 for 8 hours at 37° C. To model reperfusion of the ischemic cells, 10% fetal bovine serum, 2 g/L of glucose were added and the cultures were returned to a normal oxygen gas overlay (37° C./5% CO2) in a humidified incubator for 16 hours.
T investigate effects of LPA, LPA plus other phospholipids, PEG or their mixtures on cell death, various combinations of these components were added to cells in serum free medium at the beginning of cytotoxic treatment.
Because cardiomyocytes are terminally differentiated non-dividing cells, viability was determined by measurement of the decrease in the relative number of adherent cells. […] Adherent cardiomyocytes were collected from culture dishes using 0.25% Trypsin/0.05% EDTA and counted on Coulter Counter ZM and Coulter Channelyzer 256.

[2] = system: C3H/10T1/2 cells; test: Anti-apoptotic activity assay: serum deprivation of C3H/10T1/2 cells; assay type: cell-based; conditions: for activity compared with lysophosphatidic acid: Table 3
Excerpt: In order to determine the […] of the claimed invention, the following method of analysis was used. The cell assay is described in detail in U.S. Pat. Nos. 5,637,486, 5,620,888, and 5,681,703, and Tomei et al. (1993) Proc Natl. Aci. 90:853-857. Briefly, mouse fibroblast C3H/10T1/2 cells (clone 8) were obtained from ATCC (Rockville, Md.) and were maintained in exponential growth phase in which the cell cycle is randomly distributed and no cells are arrested in G0, and in quiescence. Exponential growth phase was assured by seeding at 2000 cells per 1 ml (5 ml for 60 mm culture plate) five days prior to the beginning of the experiment. Assays were performed on cells only up to passage 15. At T=0, cultures were transferred to serum-free medium, as an appropriate stimulus, and seed extracts were added. Controls included 10^−7 and 5×10^−8 M 12-O-tetradecanoyl phorbol-13-acetate (TPA) to ensure the responsiveness of the cell culture. The samples were added to serum free medium and sterile filtered prior to addition to the cultures. Assays were performed in triplicate or quadruplicate. Analyses of the cell responses were made between 18 and 28 hours of serum deprivation. Two assays were performed on each cell culture plate consisting of differential cell counts.
1. All non-adherent or loosely adherent cells were removed from the culture dish and counted by appropriate techniques, typically counting by electronic particle counting instrument. These are the apoptotic cells, the serum deprived released cells (SDR), released by the action of cultivation in serum-free medium. Approximately 95% of these released cells are apoptotic as shown by both ultrastructure analysis and DNA fragmentation analysis.
2. The remaining adherent cells (ADH) were exposed to a buffered, typically pH 7.3, balanced salt solution such as a Hanks Balanced Salt Solution without calcium and magnesium salts containing 0.05% trypsin and 0.53 mM ethylene diaminetetraacetic acid (EDTA). Each culture was incubated at either room temperature or 37(C on a rocking platform to ensure uniform distribution of the trypsin reagent over the culture surface. After a standardized period of time, typically 10 minutes, the released cells were removed from each culture dish and measured by the same means as described above, typically electronic particle counting. This ADH cell count is comprised of both trypsin resistant and trypsin sensitive cells as described in U.S. Pat. Nos. 5,637,486, 5,620,888, and 5,681,703.
Anti-apoptotic activity is expressed in the following examples as the calculated concentration of material ((g/ml of media) required to save 50% of the cells released on serum free treatment.
The ability of 18:1-LPA an other LPAs to protect serum-starved cells from apoptotic death was measured using the C3H/10T1/2 cell assay, performed as described in Example 2. The effect of various compounds on the ability of lysophosphatidic acid to protect serum-starved cells from apoptotic death was also measured. Log phase cells were seeded in 60 mm Petri dishes at 175-350 cells per cm2 and maintained in Basal Medium Eagle (BME) supplemented with 10% Heat Inactivated Fetal Bovine Serum (HIFBS). On day 3 the cells were given fresh media. Treatment began on day 5 when the media containing serum was removed and replaced with the LPA mixture to be tested. After 24 hours of treatment, day 6, serum deprived released (SDR) cells (the […] cell population) and adherent (ADH) cells were separated and counted using an electronic cell counter (Coulter Corporation, Hialea, Fla.). […]

[3] = serum-deprived C3H/10T1/2 cells, 24 hours of treatment

Row | SMILES | Toxic concentration range in cardiomyocytes ([1]; serum/glucose deprivation) | Maximum effect relative to 18:1 LPA: Toxic [2] | lowest concentration at which cytotoxic effects were observed (column Concentration for Max Effect) ([2]; mouse, 24 h) [µM] | Emax ([1]; serum/glucose deprivation) [%] | Concentration ranges for cardiomyocyte protection ([1]; serum/glucose deprivation) | Emax ([2]; Mus musculus, serum-deprived C3H/10T1/2 cells, 24 hours of treatment, read-out: Maximum effect relative to 18:1 LPA) [%] | Concentration for Max Effect [2, 3] [µM] | Emax [1] [%] | Maximum effect relative to 18:1 LPA in cardiomyocytes ([1]; serum/glucose deprivation) [%] | activity compared with lysophosphatidic acid [2] | Maximum effect relative to 18:1 LPA [2, 3] [%]
1 | CCCCCCCCCCCCCCOCC(O)COP(=O)(O)O (racemic) [Compound 4, 3-O-Tetradecyl-rac-glycero-1-phosphate] | Toxic (3-30 μM) | Toxic | 10 | – | – | – | – | – | – | – | –
2 | CCCCCCCC/C=C\CCCCCCCCOCC(O)COP(=O)(O)O (racemic) [Compound 12, 3-O-Oleyl-rac-glycero-1-phosphate] | – | – | – | 100 | 1 to 10 µM | 100 | 10 | – | – | – | –
3 | CCCCCCCC/C=C\CCCCCCCC(=O)OCC(COP(=O)(OC)OC)OC (racemic) [Compound 45, Dimethyl 3-O-oleoyl-2-O-methyl-rac-glycero-1-phosphate] | – | – | – | – | 30 µM | – | – | 30 | – | – | –
4 | CCCCCCCC/C=C\CCCCCCCC(=O)OCC(COP(O)(O)=S)OC (racemic) [Compound 48, 3-O-Oleoyl-2-O-methyl-rac-glycero-1-thiophosphate] | – | – | – | – | .03 to 10 µM | – | 1 | – | 100 | activity significantly higher than lysophosphaticid acid | 130
5 | CCCCCCCC/C=C\CCCCCCCCOCC(COP(O)(O)=S)OC (racemic) [Compound 66, 3-O-Oleyl-2-O-methyl-rac-glycero-1-thiophosphate] | – | – | – | – | .03 to 1 µM | – | 1 | – | 60 | activity significantly higher than lysophosphaticid acid | 130
6 | CCCCCCCC/C=C\CCCCCCCCOC(=O)C(COP(O)(O)=S)OC (racemic) [Compound 78, Oleyl 1-thiophosphoryl-2-O-methyl-rac-glycerate] | – | – | – | – | .01 to 3 µM | – | 1 | – | 130 | activity significantly higher than lysophosphaticid acid | 160
7 | CCCCCCCC/C=C\CCCCCCCCOCCCOP(=O)(O)O [Compound 16, 3-O-Oleyloxypropyl-1-phosphate] | – | – | – | – | 1 to 3 µM | – | 10 | – | 100 | – | 100
8 | CCCCCCCCCCOCCCOP(=O)(O)O [Compound 19, 3-Decyloxypropyl-1-phosphate] | – | – | – | – | 1 to 10 µM | – | 30 | – | 100 | – | 50
9 | CCCCCCCC/C=C\CCCCCCCC(=O)OCCCOP(=O)(O)O [Compound 30, 1-(3-propyl oleoate)phosphate] | – | – | – | – | 1 to 10 µM | – | 30 | – | 150 | – | 100
10 | CCCCCCCC/C=C\CCCCCCCC(=O)OCCCOP(O)(O)=S [Compound 68, 1-(3-propyloleoate)thiophosphate] | – | – | – | – | .003 to 10 µM | – | 1 | – | 100 | – | 150
